{"source": "patent US7208511B2", "about": "“Microbicidal composition” (Rohm and Haas Company, priority 2003, dated 2007)", "key": {"Mixed Bacteria [1]": {"test_system": "Mixed Bacteria", "assay": "Speed of Kill test in TSB", "type": "cell-based", "details": "for Minimum Effective Concentration ALONE: 5-log reduction criteria, no end point measured, value is 2× the highest level tested (Lazonby)", "excerpt": "(§1) One measure of synergism is the industrially accepted method described by Kull, F. C.; Eisman, P. C.; Sylwestrowicz, H. D. and Mayer, R. L., in Applied Microbiology 9:538–541 (1961), using the ratio determined by the formula: Qa/QA+Qb/QB=Synergy Index (“SI”) wherein: • QA=concentration of compound A (first component) in ppm, acting alone, which produced an end point (MIC of Compound A). • Qa=concentration of compound A in ppm, in the mixture, which produced an end point. • QB=concentration of compound B (second component) in ppm, acting alone, which produced an end point (MIC of Compound B). • Qb=concentration of compound B in ppm, in the mixture, which produced an end point.\n(§2) When the sum of Qa/QA and Qb/QB is greater than one, antagonism is indicated. […] The lower the SI, the greater the synergy shown by that particular mixture. The minimum inhibitory concentration (MIC) of a microbicide is the lowest concentration tested under a specific set of conditions that prevents the growth of added microorganisms.\nTo evaluate “Speed of Kill” an aliquot of 30 g of pH 8 TSB was dispensed in sterile 2 oz (60 mL) jars. Biocides stock solution was added into each jar to achieve the final concentration. The test samples were inoculated with 0.3 ml of mixed bacterial inoculum (resulting in 10^6/ml bacteria per ml of test solution). Samples were then placed in a shaker water bath at 30° C. Bacterial growth was monitored via the microtiter MPN method using the BECKMAN AUTOMATIC 2000 Workstation after 30 min, 1, 4, 24, 48, 72 hours and again 6–7 days contact time. The microtiter plates were incubated at 30° C. for 2 days.\n(§3) In each test, First Component (A) was MI and the Second Component (B) was DBNPA. “NG” means that no growth was observed."}, "Mixed Bacteria [2]": {"test_system": "Mixed Bacteria", "assay": "Minimum Inhibitory Concentration (MIC) synergy test, microtiter plate", "type": "cell-based", "details": "after 24 hours at 30° C.", "excerpt": "as §1, §2\nSynergy tests were conducted using standard microtiter plate assays with media designed for optimal growth of the test microorganism. […] High resolution MICs were determined by adding varying amounts of microbicide to one column of a microtitre plate and doing subsequent ten-fold dilutions using an automated liquid handling system to obtain a series of endpoints ranging from 2 ppm to 10,000 ppm active ingredient. The combinations of the present invention were tested against three bacteria, Pseudomonas aeruginosa (P. aeruginosa —ATCC #15442), Enterobacter aerogenes (ATCC #13048), and Kiebsiella pneumoniae (ATCC #13883). The bacteria were used at a concentration of about 10^8 bacteria per mL. These microorganisms are representative of natural contaminants in many consumer and industrial applications. The plates were visually evaluated for microbial growth (turbidity) to determine the MIC after various incubation times at 30° C.\nas §3"}}, "data": [{"smiles": "Cn1sccc1=O", "note": "[MI, 2-methyl-4-isothiazolin-3-one]", "values": [{"measurement": "Minimum Effective Concentration ALONE", "setting": "Mixed Bacteria [1]; 24 hr", "value": 300, "unit": "ppm AI"}, {"measurement": "Minimum Effective Concentration ALONE", "setting": "Mixed Bacteria [1]; 48 hr", "value": 300, "unit": "ppm AI"}, {"measurement": "Minimum Effective Concentration ALONE", "setting": "Mixed Bacteria [1]; 72 hr", "value": 300, "unit": "ppm AI"}, {"measurement": "CFU/ml Bacteria Log Reduction vs Control", "setting": "Mixed Bacteria [1]; MI 25 ppm AI alone, 30 min @ 30° C.", "value": "−0.3", "unit": "log"}, {"measurement": "CFU/ml Bacteria Log Reduction vs Control", "setting": "Mixed Bacteria [1]; MI 25 ppm AI alone, 1 hr @ 30° C.", "value": 0.0, "unit": "log"}, {"measurement": "CFU/ml Bacteria Log Reduction vs Control", "setting": "Mixed Bacteria [1]; MI 25 ppm AI alone, 4 hr @ 30° C.", "value": 0.2, "unit": "log"}, {"measurement": "CFU/ml Bacteria Log Reduction vs Control", "setting": "Mixed Bacteria [1]; MI 25 ppm AI alone, 24 hr @ 30° C.", "value": "−1.3", "unit": "log"}, {"measurement": "CFU/ml Bacteria Log Reduction vs Control", "setting": "Mixed Bacteria [1]; MI 25 ppm AI alone, 48 hr @ 30° C.", "value": "−2.0", "unit": "log"}, {"measurement": "CFU/ml Bacteria Log Reduction vs Control", "setting": "Mixed Bacteria [1]; MI 50 ppm AI alone, 30 min @ 30° C.", "value": 0.4, "unit": "log"}, {"measurement": "CFU/ml Bacteria Log Reduction vs Control", "setting": "Mixed Bacteria [1]; MI 50 ppm AI alone, 1 hr @ 30° C.", "value": 0.2, "unit": "log"}, {"measurement": "CFU/ml Bacteria Log Reduction vs Control", "setting": "Mixed Bacteria [1]; MI 50 ppm AI alone, 4 hr @ 30° C.", "value": 0.4, "unit": "log"}, {"measurement": "CFU/ml Bacteria Log Reduction vs Control", "setting": "Mixed Bacteria [1]; MI 50 ppm AI alone, 24 hr @ 30° C.", "value": "−0.6", "unit": "log"}, {"measurement": "CFU/ml Bacteria Log Reduction vs Control", "setting": "Mixed Bacteria [1]; MI 50 ppm AI alone, 48 hr @ 30° C.", "value": "−1.6", "unit": "log"}, {"measurement": "CFU/ml Bacteria Log Reduction vs Control", "setting": "Mixed Bacteria [1]; MI 75 ppm AI alone, 30 min @ 30° C.", "value": 0.2, "unit": "log"}, {"measurement": "CFU/ml Bacteria Log Reduction vs Control", "setting": "Mixed Bacteria [1]; MI 75 ppm AI alone, 1 hr @ 30° C.", "value": 0.2, "unit": "log"}, {"measurement": "CFU/ml Bacteria Log Reduction vs Control", "setting": "Mixed Bacteria [1]; MI 75 ppm AI alone, 4 hr @ 30° C.", "value": "−0.3", "unit": "log"}, {"measurement": "CFU/ml Bacteria Log Reduction vs Control", "setting": "Mixed Bacteria [1]; MI 75 ppm AI alone, 24 hr @ 30° C.", "value": 0.2, "unit": "log"}, {"measurement": "CFU/ml Bacteria Log Reduction vs Control", "setting": "Mixed Bacteria [1]; MI 75 ppm AI alone, 48 hr @ 30° C.", "value": "−2.0", "unit": "log"}, {"measurement": "CFU/ml Bacteria Log Reduction vs Control", "setting": "Mixed Bacteria [1]; MI 100 ppm AI alone, 168 @ 30° C.", "value": "−2.8", "unit": "log"}, {"measurement": "CFU/ml Bacteria Log Reduction vs Control", "setting": "Mixed Bacteria [1]; MI 100 ppm AI alone, 30 min @ 30° C.", "value": 0.4, "unit": "log"}, {"measurement": "CFU/ml Bacteria Log Reduction vs Control", "setting": "Mixed Bacteria [1]; MI 100 ppm AI alone, 1 hr @ 30° C.", "value": 0.6, "unit": "log"}, {"measurement": "CFU/ml Bacteria Log Reduction vs Control", "setting": "Mixed Bacteria [1]; MI 100 ppm AI alone, 4 hr @ 30° C.", "value": 0.2, "unit": "log"}, {"measurement": "CFU/ml Bacteria Log Reduction vs Control", "setting": "Mixed Bacteria [1]; MI 100 ppm AI alone, 24 hr @ 30° C.", "value": 0.8, "unit": "log"}, {"measurement": "CFU/ml Bacteria Log Reduction vs Control", "setting": "Mixed Bacteria [1]; MI 100 ppm AI alone, 48 hr @ 30° C.", "value": 1.7, "unit": "log"}, {"measurement": "CFU/ml Bacteria Log Reduction vs Control", "setting": "Mixed Bacteria [1]; MI 100 ppm AI alone, 72 hr @ 30° C.", "value": 0.0, "unit": "log"}, {"measurement": "CFU/ml Bacteria Log Reduction vs Control", "setting": "Mixed Bacteria [1]; MI 150 ppm AI alone, 168 @ 30° C.", "value": "−2.0", "unit": "log"}, {"measurement": "CFU/ml Bacteria Log Reduction vs Control", "setting": "Mixed Bacteria [1]; MI 150 ppm AI alone, 30 min @ 30° C.", "value": 0.6, "unit": "log"}, {"measurement": "CFU/ml Bacteria Log Reduction vs Control", "setting": "Mixed Bacteria [1]; MI 150 ppm AI alone, 1 hr @ 30° C.", "value": 0.2, "unit": "log"}, {"measurement": "CFU/ml Bacteria Log Reduction vs Control", "setting": "Mixed Bacteria [1]; MI 150 ppm AI alone, 4 hr @ 30° C.", "value": 0.0, "unit": "log"}, {"measurement": "CFU/ml Bacteria Log Reduction vs Control", "setting": "Mixed Bacteria [1]; MI 150 ppm AI alone, 24 hr @ 30° C.", "value": "−0.2", "unit": "log"}, {"measurement": "CFU/ml Bacteria Log Reduction vs Control", "setting": "Mixed Bacteria [1]; MI 150 ppm AI alone, 48 hr @ 30° C.", "value": 1.7, "unit": "log"}, {"measurement": "CFU/ml Bacteria Log Reduction vs Control", "setting": "Mixed Bacteria [1]; MI 150 ppm AI alone, 72 hr @ 30° C.", "value": 0.4, "unit": "log"}, {"measurement": "MIC Values ALONE", "setting": "Mixed Bacteria [2]; 1/10 TSB", "value": 38, "unit": "ppm AI"}, {"measurement": "MIC Values ALONE", "setting": "Mixed Bacteria [2]; M9G + 0.1% yeast extract", "value": 38, "unit": "ppm AI"}]}, {"smiles": "N#CC(Br)(Br)C(N)=O", "note": "[DBNPA, 2,2-dibromo-3-nitrilopropionamide]", "values": [{"measurement": "Minimum Effective Concentration ALONE", "setting": "Mixed Bacteria [1]; 24 hr", "value": 46, "unit": "ppm AI"}, {"measurement": "Minimum Effective Concentration ALONE", "setting": "Mixed Bacteria [1]; 48 hr", "value": 46, "unit": "ppm AI"}, {"measurement": "Minimum Effective Concentration ALONE", "setting": "Mixed Bacteria [1]; 72 hr", "value": 46, "unit": "ppm AI"}, {"measurement": "CFU/ml Bacteria Log Reduction vs Control", "setting": "Mixed Bacteria [1]; DBNPA 1 ppm AI alone, 30 min @ 30° C.", "value": 0.6, "unit": "log"}, {"measurement": "CFU/ml Bacteria Log Reduction vs Control", "setting": "Mixed Bacteria [1]; DBNPA 1 ppm AI alone, 1 hr @ 30° C.", "value": "−0.6", "unit": "log"}, {"measurement": "CFU/ml Bacteria Log Reduction vs Control", "setting": "Mixed Bacteria [1]; DBNPA 1 ppm AI alone, 4 hr @ 30° C.", "value": "−1.0", "unit": "log"}, {"measurement": "CFU/ml Bacteria Log Reduction vs Control", "setting": "Mixed Bacteria [1]; DBNPA 1 ppm AI alone, 24 hr @ 30° C.", "value": "−2.6", "unit": "log"}, {"measurement": "CFU/ml Bacteria Log Reduction vs Control", "setting": "Mixed Bacteria [1]; DBNPA 2 ppm AI alone, 30 min @ 30° C.", "value": "−0.1", "unit": "log"}, {"measurement": "CFU/ml Bacteria Log Reduction vs Control", "setting": "Mixed Bacteria [1]; DBNPA 2 ppm AI alone, 1 hr @ 30° C.", "value": "−0.3", "unit": "log"}, {"measurement": "CFU/ml Bacteria Log Reduction vs Control", "setting": "Mixed Bacteria [1]; DBNPA 2 ppm AI alone, 4 hr @ 30° C.", "value": "−0.8", "unit": "log"}, {"measurement": "CFU/ml Bacteria Log Reduction vs Control", "setting": "Mixed Bacteria [1]; DBNPA 2 ppm AI alone, 24 hr @ 30° C.", "value": "−1.4", "unit": "log"}, {"measurement": "CFU/ml Bacteria Log Reduction vs Control", "setting": "Mixed Bacteria [1]; DBNPA 5 ppm AI alone, 30 min @ 30° C.", "value": 0.4, "unit": "log"}, {"measurement": "CFU/ml Bacteria Log Reduction vs Control", "setting": "Mixed Bacteria [1]; DBNPA 5 ppm AI alone, 1 hr @ 30° C.", "value": "−0.3", "unit": "log"}, {"measurement": "CFU/ml Bacteria Log Reduction vs Control", "setting": "Mixed Bacteria [1]; DBNPA 5 ppm AI alone, 4 hr @ 30° C.", "value": "−0.8", "unit": "log"}, {"measurement": "CFU/ml Bacteria Log Reduction vs Control", "setting": "Mixed Bacteria [1]; DBNPA 5 ppm AI alone, 24 hr @ 30° C.", "value": "−1.6", "unit": "log"}, {"measurement": "CFU/ml Bacteria Log Reduction vs Control", "setting": "Mixed Bacteria [1]; DBNPA 9 ppm AI alone, 30 min @ 30° C.", "value": 0.4, "unit": "log"}, {"measurement": "CFU/ml Bacteria Log Reduction vs Control", "setting": "Mixed Bacteria [1]; DBNPA 9 ppm AI alone, 1 hr @ 30° C.", "value": 0.0, "unit": "log"}, {"measurement": "CFU/ml Bacteria Log Reduction vs Control", "setting": "Mixed Bacteria [1]; DBNPA 9 ppm AI alone, 4 hr @ 30° C.", "value": "−1.0", "unit": "log"}, {"measurement": "CFU/ml Bacteria Log Reduction vs Control", "setting": "Mixed Bacteria [1]; DBNPA 9 ppm AI alone, 24 hr @ 30° C.", "value": "−2.0", "unit": "log"}, {"measurement": "CFU/ml Bacteria Log Reduction vs Control", "setting": "Mixed Bacteria [1]; DBNPA 23 ppm AI alone, 30 min @ 30° C.", "value": 0.4, "unit": "log"}, {"measurement": "CFU/ml Bacteria Log Reduction vs Control", "setting": "Mixed Bacteria [1]; DBNPA 23 ppm AI alone, 1 hr @ 30° C.", "value": 0.2, "unit": "log"}, {"measurement": "CFU/ml Bacteria Log Reduction vs Control", "setting": "Mixed Bacteria [1]; DBNPA 23 ppm AI alone, 4 hr @ 30° C.", "value": "−1.0", "unit": "log"}, {"measurement": "CFU/ml Bacteria Log Reduction vs Control", "setting": "Mixed Bacteria [1]; DBNPA 23 ppm AI alone, 24 hr @ 30° C.", "value": "−1.4", "unit": "log"}, {"measurement": "MIC Values ALONE", "setting": "Mixed Bacteria [2]; 1/10 TSB", "value": 45, "unit": "ppm AI"}, {"measurement": "MIC Values ALONE", "setting": "Mixed Bacteria [2]; M9G + 0.1% yeast extract", "value": 45, "unit": "ppm AI"}]}]}
